ChEMBL document CHEMBL3045679, “Microwave-assisted synthesis and pharmacological studies of novel 5-deazaalloxazine derivatives” (2012)
Values after ≈ are worked out from the molar mass of the structure shown. Active and inactive are the calls of the source. The calls are words filed in the database; no cut-off is given here.

Key:
Bacillus cereus [1] = test: Antibacterial activity against Bacillus cereus NCIM 2155 at 1000 ug/disk after 24 hr by disk diffusion method; assay type: functional; conditions: NCIM 2155, 24 h, read-out: DIZ
Penicillium chrysogenum [2] = test: Antifungal activity against Penicillium chrysogenum NCIM 707 at 500 ug/disk after 72 hr by disk diffusion method; assay type: functional; conditions: NCIM 707, 72 h, read-out: DIZ
Aspergillus niger [3] = test: Antifungal activity against Aspergillus niger NCIM 1196 at 500 ug/disk after 72 hr by disk diffusion method; assay type: functional
Streptomyces albus [4] = test: Antibacterial activity against Streptomyces albus NCIM 2178 at 500 ug/disk after 24 hr by disk diffusion method; assay type: functional, organism-based
Klebsiella aerogenes [5] = test: Antibacterial activity against Enterobacter aerogenes NCIM 2239 at 500 ug/disk after 24 hr by disk diffusion method; assay type: functional; conditions: NCIM 2239, 24 h, read-out: DIZ
Bacillus subtilis [6] = test: Antibacterial activity against Bacillus subtilis NCIM 2063 at 500 ug/disk after 24 hr by disk diffusion method; assay type: functional
Klebsiella aerogenes [7] = test: Antibacterial activity against Enterobacter aerogenes NCIM 2239 after 24 hr by broth dilution assay; assay type: functional; conditions: NCIM 2239, 24 h
Streptomyces albus [8] = test: Antibacterial activity against Streptomyces albus NCIM 2178 after 24 hr by broth dilution assay; assay type: functional; conditions: NCIM 2178, 24 h
Bacillus cereus [9] = test: Antibacterial activity against Bacillus cereus NCIM 2155 at 500 ug/disk after 24 hr by disk diffusion method; assay type: functional; conditions: NCIM 2155, 24 h, read-out: DIZ
Rhodotorula mucilaginosa [10] = test: Antifungal activity against Rhodotorula mucilaginosa NCIM 3174 at 500 ug/disk after 72 hr by disk diffusion method; assay type: functional; conditions: NCIM 3174, 72 h, read-out: DIZ
Rhodotorula mucilaginosa [11] = test: Antifungal activity against Rhodotorula mucilaginosa NCIM 3174 after 72 hr by broth dilution assay; assay type: functional; conditions: NCIM 3174, 72 h
Lipomyces lipofer [12] = test: Antifungal activity against Lipomyces lipofer NCIM 3252 after 72 hr by broth dilution assay; assay type: functional; conditions: NCIM 3252, 72 h
Bacillus cereus [13] = test: Antibacterial activity against Bacillus cereus NCIM 2155 after 24 hr by broth dilution assay; assay type: functional; conditions: NCIM 2155, 24 h
Lipomyces lipofer [14] = test: Antifungal activity against Lipomyces lipofer NCIM 3252 at 1000 ug/disk after 72 hr by disk diffusion method; assay type: functional; conditions: NCIM 3252, 72 h, read-out: DIZ
Pseudomonas aeruginosa [15] = test: Antibacterial activity against Pseudomonas aeruginosa NCIM 2200 after 24 hr by broth dilution assay; assay type: functional; conditions: NCIM 2200, 24 h
Klebsiella aerogenes [16] = test: Antibacterial activity against Enterobacter aerogenes NCIM 2239 at 1000 ug/disk after 24 hr by disk diffusion method; assay type: functional; conditions: NCIM 2239, 24 h, read-out: DIZ
Escherichia coli [17] = test: Antibacterial activity against Escherichia coli NCIM 2065 at 500 ug/disk after 24 hr by disk diffusion method; assay type: functional
Aspergillus flavus [18] = test: Antifungal activity against Aspergillus flavus NCIM 535 at 500 ug/disk after 72 hr by disk diffusion method; assay type: functional; conditions: NCIM 535, 72 h, read-out: DIZ
Aspergillus flavus [19] = test: Antifungal activity against Aspergillus flavus NCIM 535 after 72 hr by broth dilution assay; assay type: functional; conditions: NCIM 535, 72 h
Penicillium chrysogenum [20] = test: Antifungal activity against Penicillium chrysogenum NCIM 707 after 72 hr by broth dilution assay; assay type: functional; conditions: NCIM 707, 72 h
Pseudomonas aeruginosa [21] = test: Antibacterial activity against Pseudomonas aeruginosa NCIM 2200 at 500 ug/disk after 24 hr by disk diffusion method; assay type: functional; conditions: NCIM 2200, 24 h, read-out: DIZ
Pseudomonas aeruginosa [22] = test: Antibacterial activity against Pseudomonas aeruginosa NCIM 2200 at 1000 ug/disk after 24 hr by disk diffusion method; assay type: functional; conditions: NCIM 2200, 24 h, read-out: DIZ
Aspergillus flavus [23] = test: Antifungal activity against Aspergillus flavus NCIM 535 at 1000 ug/disk after 72 hr by disk diffusion method; assay type: functional; conditions: NCIM 535, 72 h, read-out: DIZ
Lipomyces lipofer [24] = test: Antifungal activity against Lipomyces lipofer NCIM 3252 at 500 ug/disk after 72 hr by disk diffusion method; assay type: functional; conditions: NCIM 3252, 72 h, read-out: DIZ
Bacillus subtilis [25] = test: Antibacterial activity against Bacillus subtilis NCIM 2063 at 1000 ug/disk after 24 hr by disk diffusion method; assay type: functional; conditions: NCIM 2063, 24 h, read-out: DIZ
Penicillium chrysogenum [26] = test: Antifungal activity against Penicillium chrysogenum NCIM 707 at 1000 ug/disk after 72 hr by disk diffusion method; assay type: functional; conditions: NCIM 707, 72 h, read-out: DIZ
Rhodotorula mucilaginosa [27] = test: Antifungal activity against Rhodotorula mucilaginosa NCIM 3174 at 1000 ug/disk after 72 hr by disk diffusion method; assay type: functional; conditions: NCIM 3174, 72 h, read-out: DIZ
Bacillus subtilis [28] = test: Antibacterial activity against Bacillus subtilis NCIM 2063 after 24 hr by broth dilution assay; assay type: functional; conditions: NCIM 2063, 24 h
Streptomyces albus [29] = test: Antibacterial activity against Streptomyces albus NCIM 2178 at 1000 ug/disk after 24 hr by disk diffusion method; assay type: functional; conditions: NCIM 2178, 24 h, read-out: DIZ
Escherichia coli [30] = test: Antibacterial activity against Escherichia coli NCIM 2065 at 1000 ug/disk after 24 hr by disk diffusion method; assay type: functional; conditions: NCIM 2065, 24 h, read-out: DIZ
Candida albicans [31] = test: Antifungal activity against Candida albicans NCIM 3471 at 1000 ug/disk after 72 hr by disk diffusion method; assay type: functional; conditions: NCIM 3471, 72 h, read-out: DIZ
Escherichia coli [32] = test: Antibacterial activity against Escherichia coli NCIM 2065 after 24 hr by broth dilution assay; assay type: functional; conditions: NCIM 2065, 24 h
Aspergillus niger [33] = test: Antifungal activity against Aspergillus niger NCIM 1196 at 1000 ug/disk after 72 hr by disk diffusion method; assay type: functional; conditions: NCIM 1196, 72 h, read-out: DIZ
Candida albicans [34] = test: Antifungal activity against Candida albicans NCIM 3471 after 72 hr by broth dilution assay; assay type: functional; conditions: NCIM 3471, 72 h
Candida albicans [35] = test: Antifungal activity against Candida albicans NCIM 3471 at 500 ug/disk after 72 hr by disk diffusion method; assay type: functional
Aspergillus niger [36] = test: Antifungal activity against Aspergillus niger NCIM 1196 after 72 hr by broth dilution assay; assay type: functional; conditions: NCIM 1196, 72 h

Compound	zone of inhibition at 1000 µg/disc (Bacillus cereus [1]) [mm]	zone of inhibition at 500 µg/disc (Penicillium chrysogenum [2]) [mm]	diameter of the inhibition zone (DIZ) (Aspergillus niger [3])	diameter of the inhibition zone (DIZ) (Streptomyces albus [4])	zone of inhibition at 500 µg/disc (Klebsiella aerogenes [5]) [mm]	MIC (Klebsiella aerogenes [7]) [µg/mL]	MIC (Streptomyces albus [8]) [µg/mL]	zone of inhibition at 500 µg/disc (Bacillus cereus [9]) [mm]	zone of inhibition at 500 µg/disc (Rhodotorula mucilaginosa [10]) [mm]	MIC (Rhodotorula mucilaginosa [11]) [µg/mL]	MIC (Lipomyces lipofer [12]) [µg/mL]	MIC (Bacillus cereus [13]) [µg/mL]	zone of inhibition at 1000 µg/disc (Lipomyces lipofer [14]) [mm]	MIC (Pseudomonas aeruginosa [15]) [µg/mL]	zone of inhibition at 1000 µg/disc (Klebsiella aerogenes [16]) [mm]	zone of inhibition at 500 µg/disc (Aspergillus flavus [18]) [mm]	MIC (Aspergillus flavus [19]) [µg/mL]	MIC (Penicillium chrysogenum [20]) [µg/mL]	zone of inhibition at 500 µg/disc (Pseudomonas aeruginosa [21]) [mm]	zone of inhibition at 1000 µg/disc (Pseudomonas aeruginosa [22]) [mm]	further results
O=c1[nH]c(=S)[nH]c2nc3ccccc3cc12	11	10	inactive	inactive	10	3.9 (≈ 17 µM)	62.5 (≈ 273 µM)	8	10	15.6 (≈ 68 µM)	125 (≈ 545 µM)	31.2 (≈ 136 µM)	12	31.2 (≈ 136 µM)	13	9	7.8 (≈ 34 µM)	7.8 (≈ 34 µM)	10	11	diameter of the inhibition zone (DIZ) (Bacillus subtilis [6]): inactive; zone of inhibition at 500 µg/disc (Escherichia coli [17]; NCIM 2065, 24 h, read-out: DIZ): 9 mm; zone of inhibition at 1000 µg/disc (Aspergillus flavus [23]): 15 mm; zone of inhibition at 500 µg/disc (Lipomyces lipofer [24]): 9 mm; zone of inhibition at 1000 µg/disc (Bacillus subtilis [25]): 10 mm; zone of inhibition at 1000 µg/disc (Penicillium chrysogenum [26]): 12 mm; zone of inhibition at 1000 µg/disc (Rhodotorula mucilaginosa [27]): 12 mm; MIC (Bacillus subtilis [28]): 62.5 µg/mL (≈ 273 µM); zone of inhibition at 1000 µg/disc (Streptomyces albus [29]): 12 mm; zone of inhibition at 1000 µg/disc (Escherichia coli [30]): 10 mm; zone of inhibition at 1000 µg/disc (Candida albicans [31]): 11 mm; MIC (Escherichia coli [32]): 31.2 µg/mL (≈ 136 µM); zone of inhibition at 1000 µg/disc (Aspergillus niger [33]): 10 mm; MIC (Candida albicans [34]): 125 µg/mL (≈ 545 µM); diameter of the inhibition zone (DIZ) (Candida albicans [35]): inactive
Cc1ccc2nc3[nH]c(=O)[nH]c(=O)c3cc2c1	13	10	inactive	inactive	10	7.8 (≈ 34.3 µM)	62.5 (≈ 275 µM)	11	9	7.8 (≈ 34.3 µM)	15.6 (≈ 68.7 µM)	7.8 (≈ 34.3 µM)	13	3.9 (≈ 17.2 µM)	11	9	7.8 (≈ 34.3 µM)	15.6 (≈ 68.7 µM)	16	17	zone of inhibition at 500 µg/disc (Bacillus subtilis [6]; NCIM 2063, 24 h, read-out: DIZ): 9 mm; MIC (Aspergillus niger [36]): 31.2 µg/mL (≈ 137 µM); diameter of the inhibition zone (DIZ) (Escherichia coli [17]): inactive; zone of inhibition at 1000 µg/disc (Aspergillus flavus [23]): 10 mm; zone of inhibition at 500 µg/disc (Lipomyces lipofer [24]): 11 mm; zone of inhibition at 1000 µg/disc (Bacillus subtilis [25]): 11 mm; zone of inhibition at 1000 µg/disc (Penicillium chrysogenum [26]): 11 mm; zone of inhibition at 1000 µg/disc (Rhodotorula mucilaginosa [27]): 13 mm; MIC (Bacillus subtilis [28]): 15.6 µg/mL (≈ 68.7 µM); zone of inhibition at 1000 µg/disc (Streptomyces albus [29]): 9 mm; zone of inhibition at 1000 µg/disc (Escherichia coli [30]): 12 mm; zone of inhibition at 1000 µg/disc (Candida albicans [31]): 10 mm; MIC (Escherichia coli [32]): 7.8 µg/mL (≈ 34.3 µM); zone of inhibition at 1000 µg/disc (Aspergillus niger [33]): 11 mm; MIC (Candida albicans [34]): 15.6 µg/mL (≈ 68.7 µM); zone of inhibition at 500 µg/disc (Candida albicans [35]; NCIM 3471, 72 h, read-out: DIZ): 8 mm
